In patent US20120264735A1 (priority 2009, published 2012):

Biological target: T1, c-Met kinase (recombinant c-Met) (Homo sapiens, UniProt P08581)
T1 construct: 0.27 nM recombinant c-Met
Test: In vitro kinase assay I (homogeneous time-resolved fluorescence tyrosine kinase assay)
Type: biochemical
Procedure: The kinase activities of c-Met are measured using a modified version of the homogeneous-time-resolved tyrosine kinase assay described by Park et al. (1999, Anal. Biochem. 269:94-104).
The procedure for determining the potency of a compound to inhibit c-Met kinase comprises the following steps: • 1. Prepare 3-fold serial diluted compound solutions in 100% dimethyl sulfoxide (DMSO) at 20× of the desired final concentrations in a 384-well plate. • 2. Prepare a master reaction mix containing 6.67 mM MgCl2, 133.3 mM NaCl, 66.7 mM Tris-HCl (pH 7.4), 0.13 mg/ml BSA, 2.67 mM dithiothreitol, 0.27 nM recombinant c-Met and 666.7 nM biotinylated synthetic peptide substrate (biotin-ahx-EQEDEPEGDYFEWLE-CONH2) (SEQ.ID.NO.:1). • 3. In a black assay plate, add 1.5 μl of compound solution (or DMSO) and 22.5 μl of master reaction mix per well. Initiate the kinase reaction by adding 6 μl of 0.25 mM MgATP per well. Allow the reactions to proceed for 60 min at room temperature. The final conditions for the reaction are 0.2 nM c-Met, 0.5 μM substrate, 50 μM MgATP, 5 mM MgCl2, 100 mM NaCl, 2 mM DTT, 0.1 mg/ml BSA, 50 mM Tris (pH 7.4) and 5% DMSO. • 4. Stop the kinase reaction with 30 μl of Stop/Detection buffer containing 10 mM EDTA, 25 mM HEPES, 0.1% TRITON X-100, 0.750 nM Eu-chelate labeled anti-phosphotyrosine antibody PY20 (cat. #AD0067, PerkinElmer) and 50 μg/ml Streptavidin-allophycocyanin conjugate (cat. #PJ25S, Prozyme). • 5. Read HTRF signals on a Victor reader (PerkinElmer) in HTRF mode after 60-min incubation at room temperature in the dark. • 6. IC50 is determined by fitting the observed relationship between compound concentration and HTRF signal with a 4-parameter logistic equation. II. GTL-16 pY1349 Cell-Based Assay

T1 sequence (P08581 25-1390): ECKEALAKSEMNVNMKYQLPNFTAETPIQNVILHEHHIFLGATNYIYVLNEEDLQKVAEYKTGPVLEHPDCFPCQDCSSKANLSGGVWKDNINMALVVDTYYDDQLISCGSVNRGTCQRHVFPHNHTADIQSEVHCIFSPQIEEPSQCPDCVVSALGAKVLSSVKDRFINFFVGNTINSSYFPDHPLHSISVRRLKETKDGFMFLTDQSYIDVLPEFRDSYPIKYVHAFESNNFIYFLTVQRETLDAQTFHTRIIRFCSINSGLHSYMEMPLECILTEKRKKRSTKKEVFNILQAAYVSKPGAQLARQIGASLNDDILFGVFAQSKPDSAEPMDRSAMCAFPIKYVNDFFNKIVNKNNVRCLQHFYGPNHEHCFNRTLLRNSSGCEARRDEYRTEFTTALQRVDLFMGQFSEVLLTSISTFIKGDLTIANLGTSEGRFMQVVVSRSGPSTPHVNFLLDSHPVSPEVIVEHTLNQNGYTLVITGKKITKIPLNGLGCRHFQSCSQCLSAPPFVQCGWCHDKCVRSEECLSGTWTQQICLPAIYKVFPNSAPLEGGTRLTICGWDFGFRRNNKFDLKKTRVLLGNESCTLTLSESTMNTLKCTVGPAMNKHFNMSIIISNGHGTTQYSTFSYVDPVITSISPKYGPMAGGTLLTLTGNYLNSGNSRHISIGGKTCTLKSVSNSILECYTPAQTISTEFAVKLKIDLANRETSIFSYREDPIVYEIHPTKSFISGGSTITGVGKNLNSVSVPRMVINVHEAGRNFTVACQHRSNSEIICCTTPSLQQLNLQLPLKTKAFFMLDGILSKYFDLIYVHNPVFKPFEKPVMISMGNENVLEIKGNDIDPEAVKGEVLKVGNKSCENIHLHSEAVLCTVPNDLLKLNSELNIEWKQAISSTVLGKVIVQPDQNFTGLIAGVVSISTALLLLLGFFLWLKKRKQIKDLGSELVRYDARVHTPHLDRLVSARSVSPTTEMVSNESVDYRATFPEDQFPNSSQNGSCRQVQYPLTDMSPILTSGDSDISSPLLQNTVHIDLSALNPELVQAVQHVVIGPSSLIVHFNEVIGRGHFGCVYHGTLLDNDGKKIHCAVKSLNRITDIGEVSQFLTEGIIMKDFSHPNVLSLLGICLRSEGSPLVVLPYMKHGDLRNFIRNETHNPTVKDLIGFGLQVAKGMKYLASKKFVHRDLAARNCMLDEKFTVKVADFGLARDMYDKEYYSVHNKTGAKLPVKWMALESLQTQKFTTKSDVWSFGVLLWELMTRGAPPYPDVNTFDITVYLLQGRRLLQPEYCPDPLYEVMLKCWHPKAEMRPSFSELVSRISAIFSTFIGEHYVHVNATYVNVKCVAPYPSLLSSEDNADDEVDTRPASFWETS

| IC50 [nM] | Structure (SMILES) |
| --- | --- |
| < 100 | CCOc1cnc2ccc(C(C)c3nn(-c4cnn(CC)c4)ccc3=O)cc2c1 (single isomer, unassigned) [Example 227, 3-[(1R or S)-1-(3-ethoxyquinolin-6-yl)ethyl]-1-(1-ethyl-1H-pyrazol-4-yl)pyridazin-4(1H)-one] |
| < 100 | O=C(Nc1cccc(Cc2nn(-c3cc(F)cc(F)c3)ccc2=O)c1)OCCN1CCCC1=O [Example 592, 2-(2-oxopyrrolidin-1-yl)ethyl (3-{[1-(3,5-difluorophenyl)-4-oxo-1,4-dihydropyridazin-3-yl]methyl}phenyl)carbamate] |
| < 100 | Cn1cc(-n2ccc(=O)c(Cc3cccc(-c4ncc(N5CCC(C(N)=O)CC5)cn4)c3)n2)cn1 [Example 445, 1-[2-(3-{[1-(1-methyl-1H-pyrazol-4-yl)-4-oxo-1,4-dihydropyridazin-3-yl]methyl}phenyl)pyrimidin-5-yl]piperidine-4-carboxamide] |
| < 100 | O=C(Nc1cccc(Cc2nn(-c3cc(F)c(F)c(F)c3)ccc2=O)c1)OCC1CCC1 [Example 555, cyclobutylmethyl (3-{[4-oxo-1-(3,4,5-trifluorophenyl)-1,4-dihydropyridazin-3-yl]methyl}phenyl)carbamate] |
| < 100 | CC(C)(O)COc1cnc(-c2cccc(Cc3nn(-c4cc(Cl)cc(C#N)c4)ccc3=O)c2)nc1 [Example 371, 3-chloro-5-[3-{3-[5-(2-hydroxy-2-methylpropoxy)pyrimidin-2-yl]benzyl}-4-oxopyridazin-1(4H)-yl]benzonitrile] |
| < 100 | Cn1cc(-n2ccc(=O)c(Cc3cccc(-c4ncc(O[C@@H]5COC[C@@H]5F)cn4)c3)n2)cn1 (racemic) [Example 390, rac-3-(3-{5-[(cis-4-fluorotetra-hydrofuran-3-yl}oxy]pyrimidin-2-yl}benzyl)-1-(1-methyl-1H-pyrazol-4-yl)pyridazin-4(1H)-one] |
| < 100 | [2H]C([2H])([2H])n1cc(-n2ccc(=O)c(C(F)c3cccc(-c4ncc(OC([2H])([2H])C([2H])([2H])[2H])cn4)c3)n2)cn1 (racemic) [Example 658, rac-3-[[3-(5-Ethoxypyrimidin-2-yl)phenyl](fluoro)methyl]-1-(1-methyl-1H-pyrazol-4-yl)pyridazin-4(1H)-one-d8] |
| 100 to 1000 | CC(c1cccc(-c2ncc(Br)cn2)c1)c1nn(-c2cnn(C)c2)ccc1=O (single isomer, unassigned) [Example 241, 3-{(1S or R)-1-[3-(5-bromopyrimidin-2-yl)pheny]ethyl)}-1-(1-methyl-1H-pyrazol-4-yl)pyridazin-4(1H)-one] |
| < 100 | CC(C)(O)COc1cnc(-c2cccc(Cc3nn(-c4cc(F)cc(C#N)c4)ccc3=O)c2)nc1 [Example 6, 3-Fluoro-5-[3-{3-[5-(2-hydroxy-2-methylpropoxy)pyrimidin-2-yl]benzyl}-4-oxopyridazin-1(4H)-yl]benzonitrile] |
| < 100 | Cn1cc(-n2ccc(=O)c(Cc3cccc(NC(=O)OCC(C)(C)C)c3)n2)cn1 [Example 501, 2,2-dimethylpropyl (3-{[1-(1-methyl-1H-pyrazol-4-yl)-4-oxo-1,4-dihydropyridazin-3-yl]methyl}phenyl)carbamate] |
| < 100 | COCCOc1cnc(-c2cccc(Cc3nn(-c4ccc(C#N)cc4)ccc3=O)c2)nc1 [Example 138, 4-[3-{3-[5-(2-methoxyethoxy)pyrimidin-2-yl]benzyl}-4-oxopyridazin-1(4H)-yl]benzonitrile] |
| 100 to 1000 | CCOC(=O)Nc1cccc(Cc2nn(-c3cnn(CC(C)C)c3)ccc2=O)c1 [Example 92, ethyl [3-({1-[1-(2-methylpropyl)-1H-pyrazol-4-yl]-4-oxo-1,4-dihydropyridazin-3-yl}methyl)phenyl]carbamate] |
| < 100 | N#Cc1cccc(-n2ccc(=O)c(Cc3cccc(NC(=O)OCCC4CCOCC4)c3)n2)c1 [Example 598, 2-(tetrahydro-2H-pyran-4-yl)ethyl (3-{[1-(3-cyanophenyl)-4-oxo-1,4-dihydropyridazin-3-yl]methyl}phenyl)carbamate] |
| < 100 | CCn1cc(-n2ccc(=O)c(Cc3cccc(-c4ncc(OCC5COCCO5)cn4)c3)n2)cn1 (racemic) [Example 311, rac-3-{3-[5-(1,4-dioxan-2-ylmethoxy)pyrimidin-2-yl]benzyl}-1-(1-ethyl-1H-pyrazol-4-yl)pyridazin-4(1H)-one] |
| < 100 | N#Cc1cccc(-n2ccc(=O)c(Cc3cccc(NC(=O)OCCn4cncn4)c3)n2)c1 [Example 587, 2-(1H-1,2,4-triazol-1-yl)ethyl (3-{[1-(3-cyanophenyl)-4-oxo-1,4-dihydropyridazin-3-yl]methyl}phenyl)carbamate] |
| < 100 | CNCCOC(=O)Nc1cccc(Cc2nn(-c3cc(F)c(F)c(F)c3)ccc2=O)c1 [Example 622, 2-(methylamino)ethyl (3-{[4-oxo-1-(3,4,5-trifluorophenyl)-1,4-dihydropyridazin-3-yl]methyl}phenyl)carbamate] |
| < 100 | Cn1cc(-n2ccc(=O)c(Cc3cccc(NC(=O)OCC4CCCCO4)c3)n2)cn1 (racemic) [Example 563, rac-tetrahydro-2H-pyran-2-ylmethyl (3-{[1-(1-methyl-1H-pyrazol-4-yl)-4-oxo-1,4-dihydropyridazin-3-yl]methyl}phenyl)carbamate] |
| 100 to 1000 | CC(C)COC(=O)Nc1cccc(Cc2nn(-c3cnn(C4CCOCC4)c3)ccc2=O)c1 [Example 90, 2-methylpropyl [3-({4-oxo-1-[1-(tetrahydro-2H-pyran-4-yl)-1H-pyrazol-4-yl]-1,4-dihydropyridazin-3-yl}methyl)phenyl]carbamate] |
| 100 to 1000 | CC(C)COC(=O)Nc1cccc(Cc2nn(-c3cccc(-c4cnn(C)c4)c3)ccc2=O)c1 [Example 729, 2-methylpropyl [3-({1-[3-(1-methyl-1H-pyrazol-4-yl)phenyl]-4-oxo-1,4-dihydropyridazin-3-yl}methyl)phenyl] carbamate] |
| < 100 | CN(C)Cc1cnc(-c2cccc(Cc3nn(-c4cnn(C)c4)ccc3=O)c2)nc1 [Example 430, 3-(3-{5-[(dimethylamino)methyl]pyrimidin-2-yl}benzyl)-1-(1-methyl-1H-pyrazol-4-yl)pyridazin-4(1H)-one] |
| < 100 | CC(C)COc1cnc(-c2cccc(Cc3nn(-c4cnn(C)c4)ccc3=O)c2)nc1 [Example 261, 3-{3-[5-(2-methylpropoxy)pyrimidin-2-yl]benzyl}-1-(1-methyl-1H-pyrazol-4-yl)pyridazin-4(1H)-one] |
| < 100 | CCOc1cnc(-c2cccc(Cc3nn(-c4cc(F)cc(C#N)c4)ccc3=O)c2)nc1 [Example 133, 3-{3-[3-(5-ethoxypyrimidin-2-yl)benzyl]-4-oxopyridazin-1(4H)-yl}-5-fluorobenzonitrile] |
| 100 to 1000 | CCCCc1nc(-c2cccc(Cc3nn(-c4cnn(C)c4)ccc3=O)c2)no1 [Example 741, 3-[3-(5-butyl-1,2,4-oxadiazol-3-yl)benzyl]-1-(1-methyl-1H-pyrazol-4-yl)pyridazin 4(1H)-one] |
| < 100 | CCn1cc(-n2ccc(=O)c(Cc3cccc(NC(=O)OCCOC)c3)n2)cn1 [Example 70, 2-methoxyethyl (3-{[1-(1-ethyl-1H-pyrazol-4-yl)-4-oxo-1,4-dihydropyridazin-3-yl]methyl}phenyl)carbamate] |
